We go through 18 compounds from patent publication US8975259B2, “Compositions and methods for inhibiting G protein signaling” (University of Rochester, priority 2007, dated 2015).

Entries after “also recorded” stand apart in the source; their conditions may differ. Where two headings read alike, the source gives them in different places. No end group written: not given here. A value given as a limit tells only on which side of the number the result lay.

In test [1] the test system is PI3Kγ. Description: Gβ1γ2-dependent activation of purified p101/p110 PI3Kγ. The format is biochemical. The procedure: (§1) Purified PLCβ2 (0.25 ng) was assayed in the presence (▴) or absence (▪) of 100 nM purified Gβ1γ2. […] Assays contained 10 ng of purified p101/p110 PI3Kγ heterodimer with or without 100 nM purified Gβ1γ2. Left panel: (▴) 100 nM Gβ1γ2 or (▪) no βγ. […] M119 or M201 and 25 nM purified GRK2 were added simultaneously to 250 nM biotinylated Gβ1γ2 (bGβ1γ2) immobilized on streptavidin agarose. GRK2 was detected with antibody to GRK2. Data are representative (mean ±SEM, except D) repeated at least three times each. […] 30 nM bGβ1γ2 was incubated with either 30 nM PLCβ2 or PLCβ3 in the presence or absence of M119 or M201 for 16 h at 4° C. before precipitation with avidin agarose and detection with PLCβ2,or Gβ antibodies. […] Same as 4E with PLCβ3.
(§2) Nevertheless, M119 and M201 were tested in in vitro reconstitution assays of Gβγ-dependent activation of PLCβ2, PLCβ3 and PI3Kγ and binding to GRK2. […] These are only two of multiple diverse compounds identified, indicating potential for multiple modes of Gβγ-dependent target modulation by these small molecules.

Test [2] deals with Gβ1γ2 (UniProt P54311+P63212). Description: Competition phage ELISA: inhibition of SIGK-phage binding to immobilized biotinylated Gβ1γ2. Details: made in house; host or cells: Sf9 insect cells (baculovirus; co-expressed with BirA and (His)6-Gαi1, from which βγ was eluted); species or system rat. The procedure: Phage ELISA assays used to assess peptide binding to wild-type and mutant b-βγ were performed according to standard methods (Smrcka and Scott (2002) Methods Enzymol. 344:557-76). Briefly, 1 μg streptavidin was immobilized in the well of a […] overnight at 4° C. The wells were blocked with 100 μL of 2% bovine serum albumin (BSA) in Tris-buffered saline (TBS) for 1 hour at 4° C. followed by three washes of IX TBS/0.5% TWEEN®. […] The wells were washed, followed by the addition of IxIO^6 to IxIO^10 phage particles and incubated at 4° C. for 3 hours. The wells were then washed six times with TBS/0.5% TWEEN® followed by addition of 40 μL of 1:5000 dilution of anti-M13 antibody (Pharmacia, Uppsala, Sweden) and incubated at room temperature for 1 hour. The wells were washed, followed by the addition of 40 μL of (2,2′-Azino-bis (3-ethylbenzthiazoline)-6-sulfonic acid (ABTS) and the colorimetric reaction was monitored at 405 nm. Nonspecific binding was subtracted for each reading.
A phage ELISA assay was used to determine whether small molecules identified in the computational screen could interact with the Gβy protein interaction surface. […] The screen was based on a reduction in the optical density (OD) of wells containing Gβγ subunits and phage. […] Three background wells contained no βy subunits.
As disclosed herein, biotinylated Gβy subunits were immobilized on the surface of a 96-well plate coated with streptavidin, phage displaying Gβγ-binding peptides were subsequently added and binding in the presence and absence of test compounds detected with an anti-phage antibody.
The phage ELISA assay was used to rapidly screen the ability of compounds to bind to the protein interaction “hot spot” based on the method of Scott et. al (Scott et al., 2001). This assay is performed in the presence of detergent (0.5% Tween) to eliminate non-specific compound aggregation artifacts.
Compounds/DMSO and 0.1×10^10 phage were added simultaneously and subsequently incubated for 1 h at room temperature. Plates were then washed with 1× Tris-buffered saline/0.5% Tween 20 and incubated with anti-M13, HRP-conjugated antibody (Amersham, Chalfont St. Giles, Buckinghamshire, UK). Phage binding was determined by monitoring A405 upon addition of 2,2′-azino-bis(3-ethylbenzothiazoline-6-sulfonic acid) (Sigma Aldrich).
For orientation: ELISA stands for enzyme-linked immunosorbent assay.

Test [3] deals with PLCβ3. Description: Gβ1γ2-dependent activation of purified PLCβ3. The format is biochemical. Details: key to PLCb3: NE = No effect. Particulars: for IC50: Table 4, read-out: PLC β3 IC50. As for the experimental part:
as §1
(§3) The ability of NSC119910 analogs to selectively modulate activation PLC-β2 and -β3 was analyzed. In this assay, PLC-β2 and PLC-β3 were purified and PLC enzymatic activity was measured in the presence or absence of purified βy and in the presence or absence of analog.
as §2

The test system of test [4] is PLCβ2. Description: Gβ1γ2-dependent activation of purified PLCβ2. The class given is biochemical. The procedure: as §1, §3, §2
Test [5] concerns opioid-induced antinociception in mice. Kind of test: 55° C. warm-water tail-flick antinociception. Particulars: i.c.v., 20 min, 55° C. tail-flick; 95% CL in parentheses. The format is in vivo, mouse.
In test [6] the test system is human μ opioid receptor (hMOR-CHO cells). Kind of test: Total inositol phosphate assay in hMOR-CHO cells. The class given is cell-based. As for the experimental part:
Chinese hamster ovary (CHO) cells stably expressing either the human κ (hKOR-CHO), δ (hDOR-CHO)(L. Toll, Stanford Research Institute, Palo Alto, Calif.) or μ (hMOR-CHO)(G. Uhl, National Institute on Drug Abuse, Baltimore, Md.) opioid receptor were used in the experiments. Cells in 6-well plates were labeled by adding 4 μCi of [^3H]inositol for 24 hr in inositol-free F-10 media, without serum. After labeling, LiCl was added directly to the labeling media at a final concentration of 10 mM. Ligands or peptides were added at the same time. The final volume of each well was 1 mL. The plates were put back in to the incubator at 37° C. for 30 min after which time the medium was aspirated and the plates were washed twice with 1× PBS. Ice-cold 50 mM formic acid, 1 mL, was added to the plates which were placed in the cold room at 4° C. for 30 min. After the incubation, the contents of the plates were applied to Dowex AG1-X8 columns and allowed to flow all the way through the column. The columns were washed, twice each, with 50 and 100 mM formic acid, for a total of four washes, followed by elution of the IP-containing fraction with 3 mL of 1.2 M ammonium formate/0.1 M formic acid. The eluted fraction was mixed with Scintisafe scintillation fluid, for high salt, and counted. The data are represented as the fold increase over control in total inositol phospates. All experiments were repeated three times and performed in duplicate. Control cells for each experiment were labeled with [^3H]inositol and LiCl, in the same manner as the treatment groups.

The target in test [7] is T1, Fαi1GDPβ1γ2 heterotrimer (UniProt P54311+P63212).
T1 construct: made in house; host or cells: b-βγ: Sf9 insect cells
Kind of test: Dissociation of Fαi1 from preformed Fαi1β1γ2 heterotrimer (flow cytometry). The format is binding. Particulars: result in words. On the technique in general: A flow cytometer gives signals particle by particle.

Test [8] concerns carrageenan-induced paw edema in mice. Description: Carrageenan-induced paw edema and neutrophil abundance. (Carrageenan injected into the paw causes an acute inflammation.)
Test [9] deals with T2, Gαi1-Gβ1γ2 interaction (UniProt P54311+P63212).
T2 construct: made in house; host or cells: b-βγ: Sf9 insect cells
Description: Flow cytometry competition for FITC-Gαi1 binding to immobilized b-Gβ1γ2. Particulars: peptides; read-out: IC50 for competition with Gαi binding to Gβ1γ2. The procedure:
(2003) supra; Sarvazyan, et al. (1998) J. Biol. […] Fluorescein-labeled Ga^ (Fan) was prepared in accordance with standard methods (Sarvazyan, et al. (1998) supra). Assays were used to determine peptide effects on Gα-Gβγ interactions included competition and dissociation assays (Ghosh, et al. (2003) supra). […] The bead-associated fluorescence was then recorded in a BD Biosciences […] flow cytometer. Data was corrected for background fluorescence and fit with a sigmoid dose response curve using Graph Pad Prism 4. To measure dissociation of Fan from b-Gβaγ2, 100 pM of Fa^ was incubated with 50 pM immobilized b-Gβ1γ2 at room temperature for 15-20 minutes.

With `O=C1c2ccccc2C(=O)c2c(Nc3cc4c5c(ccc6c7ccc8c9c(cc(Nc%10cccc%11c%10C(=O)c%10ccccc%10C%11=O)c(c3c56)c97)-c3ccccc3C8=O)C(=O)c3ccccc3-4)cccc21` [Compound M231], the IC50 in test [1] (Table 19, effector IC50, read-out: PI 3-Kg) turned out to be 13.5 µM; in test [2] (Table 8, read-out: IC50), 16 µM; in [2] (Table 18, compounds identified in Elisa screen, read-out: IC50), 16 µM; in test [2] (Table 19, read-out: ELISA), 27 µM; in test [4] (Table 19, effector IC50, read-out: PLCb2), 167 µM. The PLCb3 result in test [3] (Table 19, effector IC50) was “NE”. Turning to `C[C@@H](NC(=O)[C@@H](N)Cc1ccc(O)cc1)C(=O)NCC(=O)N(C)[C@@H](Cc1ccccc1)C(=O)NCCO` [DAMGO, [D-Ala^2, N-Me-Phe^4, Gly^5-ol]-enkephalin], the “ED50 of opioid agonist alone” value in test [5] was 0.07 nmol. Moreover, the “increase in total IP compared to control” value in [6] is 4 fold. Consider `C[C@H](NC(=O)[C@H](CS)NC(=O)[C@@H](N)CO)C(=O)N[C@@H](CCCNC(=N)N)C(=O)N[C@@H](Cc1ccccc1)C(=O)N[C@@H](Cc1ccccc1)C(=O)NCC(=O)N[C@H](C(=O)N1CCC[C@H]1C(=O)NCC(=O)N[C@@H](CS)C(=O)N[C@H](C(=O)O)[C@@H](C)O)[C@@H](C)O` [SCAR], for which the “promotion/acceleration of heterotrimer dissociation” value (“promotion/acceleration” for short) in [7] is reported as “could not promote dissociation of a preformed heterotrimer; also recorded: the same as the intrinsic rate”. Consider `CC[C@H](C)[C@H](NC(=O)[C@H](CC(N)=O)NC(=O)[C@H](CC(C)C)NC(=O)[C@H](C)NC(=O)[C@H](C)NC(=O)[C@H](CCCNC(=N)N)NC(=O)[C@@H](NC(=O)[C@@H](N)CO)[C@@H](C)CC)C(=O)N[C@@H](CC(C)C)C(=O)NCC(=O)N[C@@H](Cc1ccc(O)cc1)C(=O)N1CCC[C@H]1C(=O)N[C@@H](CC(=O)O)C(=O)N[C@@H](Cc1ccc(O)cc1)C(=O)N[C@@H](CC(=O)O)C(=O)O` [SIRK(Lys4Ala)], for which the “promotion/acceleration” value in test [7] is recorded as “failed to accelerate heterotrimer dissociation”. Regarding `Nc1ccc(Nc2cc(S(=O)(=O)O)c(N)c3c2C(=O)c2ccccc2C3=O)cc1` [drawing 55], the IC50 in test [4] (Table 3, read-out: PLCβ2 IC50) worked out at 75 µM.

As for `Nc1cccc(Nc2cc(S(=O)(=O)O)c(N)c3c2C(=O)c2ccccc2C3=O)c1` [drawing 56], the IC50 in test [4] (Table 3, read-out: PLCβ2 IC50) came out at 14 µM. As to `Nc1ccc(-c2ccc(Nc3cc(S(=O)(=O)O)c(N)c4c3C(=O)c3ccccc3C4=O)cc2)c(S(=O)(=O)O)c1` [drawing 57], the IC50 in test [4] (Table 3, read-out: PLCβ2 IC50) is > 30 µM. In the case of `Nc1c(S(=O)(=O)O)cc(Nc2cccc(S(N)(=O)=O)c2)c2c1C(=O)c1ccccc1C2=O` [drawing 58], the IC50 in test [3] was 58 µM. As to `Nc1ccc(Nc2cc(S(=O)(=O)O)c(N)c3c2C(=O)c2ccccc2C3=O)cc1` [drawing 59], the IC50 in test [3] was found to be 12 µM. For the compound `Nc1cccc(Nc2cc(S(=O)(=O)O)c(N)c3c2C(=O)c2ccccc2C3=O)c1` [drawing 60], in test [3], the IC50 came out at 15 µM. Take `Nc1ccc(-c2ccc(Nc3cc(S(=O)(=O)O)c(N)c4c3C(=O)c3ccccc3C4=O)cc2)c(S(=O)(=O)O)c1` [drawing 61]: the IC50 in [3] worked out at 62 µM. `Nc1c(S(=O)(=O)O)cc(Nc2cccc(S(N)(=O)=O)c2)c2c1C(=O)c1ccccc1C2=O` [drawing 62]: the IC50 in test [1] (Table 5, read-out: PI3Kγ IC50) was found to be 10 µM. Consider `Nc1ccc(Nc2cc(S(=O)(=O)O)c(N)c3c2C(=O)c2ccccc2C3=O)cc1` [drawing 63], for which the IC50 in [1] (Table 5, read-out: PI3Kγ IC50) came to 2.5 µM. On the same count and under the same terms, the result for `Nc1cccc(Nc2cc(S(=O)(=O)O)c(N)c3c2C(=O)c2ccccc2C3=O)c1` [drawing 64] reads 6 µM; that for `Nc1ccc(-c2ccc(Nc3cc(S(=O)(=O)O)c(N)c4c3C(=O)c3ccccc3C4=O)cc2)c(S(=O)(=O)O)c1` [drawing 65], 16 µM. As to `COc1ccc2c(c1)c(CC(=O)O)c(C)n2C(=O)c1ccc(Cl)cc1` [indomethacin], the “effect on carrageenan-induced paw edema” value in test [8] (i.p. 1 h before carrageenan, gallein 100 mg/kg, indomethacin 2.5 mg/kg, result in words) is listed as “sharply reduced”. Besides, in [8] (i.p. pretreatment, 2 h after carrageenan), the “reduction of exudate volume” value is given as “approximately 75%”. With `COC(=O)/C=C/C(=O)N[C@@H]1CC[C@@]2(O)[C@H]3Cc4ccc(O)c5c4[C@@]2(CCN3CC2CC2)[C@H]1O5` [β-FNA, β-funaltrexamine], the “effect on DAMGO- and morphine-dependent IP production” value in [6] was “attenuated”.

Take SIRKALNILAYPDYD [SIRK(GIyIOAIa)]: the “promotion/acceleration” value in [7] is “could still accelerate heterotrimer dissociation”. In addition, the IC50 in test [9] was ~80 µM.
